Assays:
NCI-H1373 cancer cells = assay: NCI-H1373 cancer cell growth inhibition (CellTiter-Glo, 144 hours); format: cell-based; conditions: Homo sapiens, 144 hours culture
Procedure: Promega CellTiter-Glo cell activity assay kit (Item No.: Promege-G7573) was used to determine the cell activity. 90 μL NCI-H1373 cell suspension (ATCC, catalog No. CRL-5866, batch No. 58078716) was spread into the pores of the 96-well plate with 3500 cells per well. After 24 hours, the 10 μL prepared 10× compound working solution was added into the pores of the cell culture plate with a final concentration of 10 μM. 3.3333 μM, 1.1111 μM, 0.3704 μM, 0.1235 μM, 0.0412 μM, 0.0137 μM, 0.0046 μM, 0.0015 μM, 0.0005 μM, 10 μL DMSO was added to the solvent control, and the final concentration of DMSO was 0.2%. The 0-day plates were collected for analysis, and after 144 hours of culture, the growth condition of cells was detected according to the instructions of CellTiter-Glo cell activity assay kit. Add 50 μL of CellTiter-Glo working liquid into each hole of the cell culture plate, shake the plates in the dark for 2 minutes until cell lysis, and place at room temperature for 10 minutes to detect the luminous signal (RUL) of each cell hole on the 2104En Vision board reader.
Calculation formula: Growth inhibition rate %=(1−(RLU compound−RLU Day0)/(RLU solvent control−RLU Day0))*100%. The dose-response curves of each compound were fitted by GraphPad Prism 8 to obtain IC50 values.
For the matter, IC50 values less than 0.1 μM are labeled “+++”, values from 0.1 to 1 μM are labeled “++”, and values greater than 1 to 10 μM are labeled “+”.

[1] = target: T1, recombinant human PARP7 protein (Homo sapiens, UniProt Q7Z3E1); assay: Inhibition of PARP7 biological enzyme activity (histone-coated plate, Biotin-NAD+, chemiluminescence); format: biochemical; conditions: recombinant human PARP7, Biotin-NAD+ substrate
T1 construct: purchased Abcam ab271651
T1 sequence (Q7Z3E1 1-657): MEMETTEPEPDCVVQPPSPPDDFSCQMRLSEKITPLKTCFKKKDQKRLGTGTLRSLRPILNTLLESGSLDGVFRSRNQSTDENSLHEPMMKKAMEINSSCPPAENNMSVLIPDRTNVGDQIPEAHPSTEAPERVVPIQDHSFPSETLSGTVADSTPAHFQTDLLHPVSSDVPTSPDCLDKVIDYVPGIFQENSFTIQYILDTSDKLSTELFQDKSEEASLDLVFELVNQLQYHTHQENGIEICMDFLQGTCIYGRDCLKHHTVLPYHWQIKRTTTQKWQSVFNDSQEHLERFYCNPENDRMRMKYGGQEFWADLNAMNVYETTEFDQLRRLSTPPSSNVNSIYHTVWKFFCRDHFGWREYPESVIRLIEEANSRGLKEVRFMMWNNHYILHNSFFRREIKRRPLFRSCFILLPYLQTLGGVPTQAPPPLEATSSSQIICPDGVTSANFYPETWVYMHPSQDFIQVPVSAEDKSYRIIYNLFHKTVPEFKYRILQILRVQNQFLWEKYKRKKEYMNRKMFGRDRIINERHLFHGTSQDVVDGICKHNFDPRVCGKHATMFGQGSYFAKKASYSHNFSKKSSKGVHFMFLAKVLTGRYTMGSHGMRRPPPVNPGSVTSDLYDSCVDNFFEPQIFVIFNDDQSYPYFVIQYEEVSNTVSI
Procedure: The recombinant human PARP7 protein kit (Abcam, catalog number ab271651) was used for the assay. According to the kit instructions, 30 μL of histone coating solution (1.5 μg/mL) was first applied to the 384 well holes of the reaction plate and coated at 4° C. for 2 hours. Then, the histone coated solution was washed off, and 50 μL sealing buffer was added to each well, and the sealing buffer was washed off after incubation at 25° C. for 60 minutes. 1000 times the concentration of the compound was 10 configured and diluted from 1 mM to 0.05 μM, and the configured compound was transferred to 384-well plates with 25 nL per well using Echo. The final concentration of the compound in the reaction system was 1000 nM, 333.33 nM, 111.11 nM, 37.03 nM, 12.34 nM, 4.11 nM, 1.37 nM, 0.45 nM, 0.15 nM, 0.05 nM, which was used as the test hole. At the same time, 25 nL DMSO was added to the negative control well and the positive control well. The PARP7 enzyme solution with a concentration of 1.67 times was prepared, and the PARP7 enzyme solution was added to the test hole and the positive control hole with 15 μL each, while the negative control hole was added with 15 μL base Buffer, and incubated at 25° C. for 15 minutes. Then 10 μL 2.5 times Biotin-NAD+ substrate solution was added and incubated at 25° C. for 60 min. After the reaction solution was washed off, the 384-well reaction plates were treated with closed buffer solution diluted with streptavidin-HRP (1:500), each well was 30 μL, and incubated at 25° C. for 30 min. After the HRP buffer was washed off, 30 μL HRP chemiluminescent substrate mixture was added to each well, and the luminescence signal (RLU) of each well was detected by Envision. Calculation formula: Inhibition rate %=(average positive control-RLU compound)/(average positive control-average negative control))*100%. The dose-response curves of each compound were fitted by GraphPad Prism 8 to get IC50 values. IC50 values less than 0.01 μM are labeled as “+++”, IC50 values from 0.01 to 0.1 µM are labeled as “++”, and IC50 values greater than 0.1 to 10.0 μM are labeled as “+”.

Compound | IC50 (NCI-H1373 cancer cells) [nM] | IC50 [1] [nM]
C[C@@H](CONC(=O)CC1CCN(c2ncc3cc[nH]c3n2)CC1)Nc1cn[nH]c(=O)c1C(F)(F)F [Example 38, (S)-2-(1-(7H-pyrrolo(2,3-d)pyrimidin-2-yl)piperidin-4-yl)-N-(2-((6-oxo-5-(trifluoromethyl)-1,6-dihydropyridazin-4-yl)amino)propoxy)acetamide] | 100 to 1000 | < 10
C/C(=N\OC[C@H](C)Nc1cn[nH]c(=O)c1C(F)(F)F)C(=O)N1CCN(c2ncc(C(F)(F)F)cn2)CC1 [Example 16, (S,E)-5-((1-(((1-oxo-1-(4-(5-(trifluoromethyl)pyrimidin-2-yl)piperazin-1-yl)propan-2-ylidene)amino)oxy)propan-2-yl)amino)-4-(trifluoromethyl)pyridazin-3(2H)-one] | – | 10 to 100
C[C@@H](CONC(=O)CC1CCN(c2ncc3cc(F)ccc3n2)CC1)Nc1cn[nH]c(=O)c1C(F)(F)F [Example 39, (S)-2-(1-(6-fluoroquinazolin-2-yl)piperidin-4-yl)-N-(2-((6-oxo-5-(trifluoromethyl)-1,6-dihydropyridazin-4-yl)amino)propoxy)acetamide] | 100 to 1000 | < 10
C[C@@H](CN(C)OCC(=O)N1CCN(c2ncc(C#N)cn2)CC1)Nc1cn[nH]c(=O)c1C(F)(F)F [Example 4, (S)-2-(4-(2-((methyl(2-((6-oxo-5-(trifluoromethyl)-1,6-dihydropyridazin-4-yl)amino)propyl)amino)oxy)acetyl)piperazin-1-yl)pyrimidine-5-carbonitrile] | – | 10 to 100
C[C@@H](CONC(=O)C(F)C1CCN(c2ncc(C(F)(F)F)cn2)CC1)Nc1cn[nH]c(=O)c1C(F)(F)F (stereo partly shown) [Example 48] | < 100 | < 10
CCN(C[C@H](C)Nc1cn[nH]c(=O)c1C(F)(F)F)OCC(=O)N1CCN(c2ncc(C(F)(F)F)cn2)CC1 [Example 3, (S)-5-((1-(ethyl(2-oxo-2-(4-(5-(trifluoromethyl)pyrimidin-2-yl)piperazin-1-yl)ethoxy)amino)propan-2-yl)amino)-4-(trifluoromethyl)pyridazin-3(2H)-one] | – | 10 to 100
CC1CN(c2ncc(-c3ccccc3F)cn2)CC=C1CC(=O)NOC[C@H](C)Nc1cn[nH]c(=O)c1C(F)(F)F (stereo partly drawn) [Example 27, 2-(1-(5-(2-fluorophenyl)pyrimidin-2-yl)-3-methyl-1,2,3,6-tetrahydropyridin-4-yl)-N—((S)-2-((6-oxo-5-(trifluoromethyl)-1,6-dihydropyridazin-4-yl)amino)propoxy)acetamide] | 100 to 1000 | < 10
C[C@@H](CO/N=C/C(=O)N1CCN(c2ncc(C(F)(F)F)cn2)CC1)Nc1cn[nH]c(=O)c1C(F)(F)F [Example 15, (S,E)-2-oxo-2-(4-(5-(trifluoromethyl)pyrimidin-2-yl)piperazin-1-yl)acetaldehyde O-(2-((6-oxo-5-(trifluoromethyl)-1,6-dihydropyridazin-4-yl)amino)propyl) oxime] | 100 to 1000 | < 10
C[C@@H](CONC(=O)C(F)C1=CCN(c2ncc(C(F)(F)F)cn2)CC1)Nc1cn[nH]c(=O)c1C(F)(F)F (stereo partly drawn) [Example 22, 2-fluoro-N—((S)-2-((6-oxo-5-(trifluoromethyl)-1,6-dihydropyridazin-4-yl)amino)propoxy)-2-(1-(5-(trifluoromethyl)pyrimidin-2-yl)-1,2,3,6-tetrahydropyridin-4-yl) acetamide] | < 100 | < 10
C[C@@H]1CN(c2ccc(C#N)cn2)CCN1C(=O)CO/N=C/[C@H](C)Nc1cn[nH]c(=O)c1C(F)(F)F [Example 13, 6-((R)-3-methyl-4-(2-(((E)-((S)-2-((6-oxo-5-(trifluoromethyl)-1,6-dihydropyridazin-4-yl)amino)propylidene)amino)oxy)acetyl)piperazin-1-yl)nicotinonitrile] | 1000 to 10000 | < 10
C[C@@H](CONC(=O)CC1=CCN(c2ncc(-c3ccccc3F)cn2)CC1)Nc1cn[nH]c(=O)c1C(F)(F)F [Example 26, (S)-2-(1-(5-(2-fluorophenyl)pyrimidin-2-yl)-1,2,3,6-tetrahydropyridin-4-yl)-N-(2-((6-oxo-5-(trifluoromethyl)-1,6-dihydropyridazin-4-yl)amino)propoxy)acetamide] | < 100 | < 10
C[C@@H](CONC(=O)CC1=CCN(c2ncc(C3CC3)cn2)CC1)Nc1cn[nH]c(=O)c1C(F)(F)F [Example 29, (S)-2-(1-(5-cyclopropylpyrimidin-2-yl)-1,2,3,6-tetrahydropyridin-4-yl)-N-(2-((6-oxo-5-(trifluoromethyl)-1,6-dihydropyridazin-4-yl)amino)propoxy)acetamide] | < 100 | < 10
C[C@@H](CONC(=O)CC1CCN(c2ncc(C(F)(F)F)cn2)CC1F)Nc1cn[nH]c(=O)c1C(F)(F)F (stereo partly drawn) [Example 53, 2-(3-fluoro-1-(5-(trifluoromethyl)pyrimidin-2-yl)piperidin-4-yl)-N—((S)-2-((6-oxo-5-(trifluoromethyl)-1,6-dihydropyridazin-4-yl)amino)propoxy)acetamide] | 100 to 1000 | < 10
C[C@@H](/C=N/OCC(=O)N1CCN(c2ccc(C(F)(F)F)cn2)CC1)Nc1cn[nH]c(=O)c1C(F)(F)F [Example 12, (S,E)-2-((6-oxo-5-(trifluoromethyl)-1,6-dihydropyridazin-4-yl)amino)propanal O-(2-oxo-2-(4-(5-(trifluoromethyl)pyridin-2-yl)piperazin-1-yl)ethyl) oxime] | 100 to 1000 | < 10
C[C@@H](CNOCC(=O)N1CCN(c2ncc(C(F)(F)F)cn2)CC1)Nc1cn[nH]c(=O)c1C(F)(F)F [Example 1, (S)-5-((1-((2-oxo-2-(4-(5-(trifluoromethyl)pyrimidin-2-yl)piperazin-1-yl)ethoxy)amino)propan-2-yl)amino)-4-(trifluoromethyl)pyridazin-3(2H)-one] | – | < 10
C/C(=N\OCC(=O)N1CCN(c2ncc(C(F)(F)F)cn2)CC1)[C@H](C)Nc1cn[nH]c(=O)c1C(F)(F)F [Example 8, (S,E)-5-((3-((2-oxo-2-(4-(5-(trifluoromethyl)pyrimidin-2-yl)piperazin-1-yl)ethoxy)imino)butan-2-yl)amino)-4-(trifluoromethyl)pyridazin-3(2H)-one] | – | 10 to 100
C[C@@H](CN(C)OCC(=O)N1CCN(c2ncc(C(F)(F)F)cn2)CC1)Nc1cn[nH]c(=O)c1C(F)(F)F [Example 2, (S)-5-((1-(methyl(2-oxo-2-(4-(5-(trifluoromethyl)pyrimidin-2-yl)piperazin-1-yl)ethoxy)amino)propan-2-yl)amino)-4-(trifluoromethyl)pyridazin-3(2H)-one] | – | < 10

— patent publication US20240336596A1, “PARP7 INHIBITOR AND USE THEREOF” (NOVOSTAR PHARMACEUTICALS, LTD., priority 2022, published 2024)
